Data: PMC9481151, “Discovery of new symmetrical and asymmetrical nitrile-containing 1,4-dihydropyridine derivatives as dual kinases and P-glycoprotein inhibitors: synthesis, in vitro assays, and in silico studies” (Journal of Enzyme Inhibition and Medicinal Chemistry, 2022)

What was measured:
HCT-116 cells = assay: In vitro cytotoxicity; settings: Homo sapiens, HCT-116, read-out: Cytotoxicity IC50, HCT-116
[1] = test system: drug-resistant HCT-116/ADR cells; assay: Potentiation of DOX cytotoxicity (reversal DOX effect, P-gp modulation); type: cell-based, human; settings: IC50 (DOX) without modulator / IC50 (DOX) with modulator
HCT-116/ADR cells = assay: cells; settings: Homo sapiens, HCT-116, read-out: Cytotoxicity IC50, HCT-116/ADR
HER-2 = HER-2 (Homo sapiens, UniProt P04626); assay: HER-2 kinase inhibitory activity; type: biochemical; settings: (IC50 lapatinib/IC50 Compound)*100
BTK = BTK (Homo sapiens, UniProt Q06187); assay: BTK inhibitory activity; type: biochemical; settings: (IC50 lapatinib/IC50 Compound)*100
Chain of BTK (Q06187 whole entry): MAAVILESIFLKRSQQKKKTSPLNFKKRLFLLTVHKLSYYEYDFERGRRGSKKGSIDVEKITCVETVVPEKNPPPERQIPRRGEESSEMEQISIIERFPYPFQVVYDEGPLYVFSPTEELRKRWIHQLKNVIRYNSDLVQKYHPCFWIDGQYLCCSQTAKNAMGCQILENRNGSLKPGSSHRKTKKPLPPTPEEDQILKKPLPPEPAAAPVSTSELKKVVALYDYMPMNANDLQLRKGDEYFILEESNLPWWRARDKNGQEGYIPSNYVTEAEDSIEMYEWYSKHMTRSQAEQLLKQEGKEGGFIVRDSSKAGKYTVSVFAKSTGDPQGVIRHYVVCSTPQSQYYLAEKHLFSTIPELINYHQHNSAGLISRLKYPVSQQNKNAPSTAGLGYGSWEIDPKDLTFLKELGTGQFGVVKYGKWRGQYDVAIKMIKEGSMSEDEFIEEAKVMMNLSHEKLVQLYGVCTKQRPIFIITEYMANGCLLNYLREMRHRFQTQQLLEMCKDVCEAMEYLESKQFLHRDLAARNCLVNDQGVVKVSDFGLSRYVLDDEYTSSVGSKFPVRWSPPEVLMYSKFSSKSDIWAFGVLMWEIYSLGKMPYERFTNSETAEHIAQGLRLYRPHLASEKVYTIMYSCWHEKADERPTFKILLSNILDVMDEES

Chain of HER-2 (P04626 23-1255): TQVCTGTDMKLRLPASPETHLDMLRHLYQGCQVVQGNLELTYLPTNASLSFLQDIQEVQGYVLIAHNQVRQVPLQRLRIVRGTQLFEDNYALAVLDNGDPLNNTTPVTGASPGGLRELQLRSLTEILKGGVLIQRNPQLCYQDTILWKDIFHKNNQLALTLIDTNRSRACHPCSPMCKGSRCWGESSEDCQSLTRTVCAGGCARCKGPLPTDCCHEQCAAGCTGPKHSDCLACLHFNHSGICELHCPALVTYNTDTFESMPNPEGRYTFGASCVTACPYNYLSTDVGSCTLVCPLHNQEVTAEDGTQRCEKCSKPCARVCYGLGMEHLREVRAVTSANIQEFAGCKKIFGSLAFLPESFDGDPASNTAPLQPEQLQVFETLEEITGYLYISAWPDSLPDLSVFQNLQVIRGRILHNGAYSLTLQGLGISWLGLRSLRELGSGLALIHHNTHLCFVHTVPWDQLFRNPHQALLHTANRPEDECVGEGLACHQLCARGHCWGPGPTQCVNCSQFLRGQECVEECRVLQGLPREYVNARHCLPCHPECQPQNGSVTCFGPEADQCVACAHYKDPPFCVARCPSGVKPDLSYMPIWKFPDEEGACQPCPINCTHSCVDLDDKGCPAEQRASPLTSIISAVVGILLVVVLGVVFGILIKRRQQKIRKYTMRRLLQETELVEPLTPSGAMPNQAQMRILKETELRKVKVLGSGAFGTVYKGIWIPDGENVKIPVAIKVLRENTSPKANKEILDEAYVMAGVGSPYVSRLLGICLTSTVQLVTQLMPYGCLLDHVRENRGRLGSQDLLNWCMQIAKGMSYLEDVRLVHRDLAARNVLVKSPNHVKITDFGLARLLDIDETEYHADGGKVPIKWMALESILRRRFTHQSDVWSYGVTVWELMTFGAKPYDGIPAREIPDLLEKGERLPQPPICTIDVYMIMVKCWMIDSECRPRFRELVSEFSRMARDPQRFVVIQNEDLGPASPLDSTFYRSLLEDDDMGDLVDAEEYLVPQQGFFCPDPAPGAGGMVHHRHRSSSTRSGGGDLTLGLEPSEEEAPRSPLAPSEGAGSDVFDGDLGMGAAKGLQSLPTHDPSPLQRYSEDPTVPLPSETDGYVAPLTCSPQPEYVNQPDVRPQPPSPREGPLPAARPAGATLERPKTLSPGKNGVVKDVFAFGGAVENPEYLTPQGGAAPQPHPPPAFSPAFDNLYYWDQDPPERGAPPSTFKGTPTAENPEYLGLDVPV

HER-2 Potency (HER-2) [%]	BTK Potency (BTK) [%]	Structure (SMILES)	IC50 (HCT-116 cells) [µM]	RF (reversal fold activity) [1]	IC50 (HCT-116/ADR cells) [µM]
		COc1cccc2c1C(=O)c1c(O)c3c(c(O)c1C2=O)C[C@@](O)(C(=O)CO)C[C@@H]3O[C@H]1C[C@H](N)[C@H](O)[C@H](C)O1 [DOX, Doxorubicin, reference compound]	1.15 ± 0.43	1	16.91 ± 0.14
100.0	100.0	CS(=O)(=O)CCNCc1ccc(-c2ccc3ncnc(Nc4ccc(OCc5cccc(F)c5)c(Cl)c4)c3c2)o1 [Lapatinib, reference compound]			
